How the values were obtained:
CDK2/CycE = biological target: T1, CDK2/CycE (Homo sapiens, UniProt P24941); experiment: CDK2/CycE kinase assay (TR-FRET, 2 mM ATP); type: biochemical; conditions: 2 mM ATP (high ATP); median; read-out: CDK2/CyclinE, 2 mM ATP (high ATP), IC50 (median)
T1 construct: purchased ProQinase GmbH (Freiburg, Germany); host or cells: insect cells (Sf9)
How it was run: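 GST-tagged human CDK2 and CycE from Sf9 cells, about 10 ng/ml, pre-incubated 15 min at 22 °C with compound in Tris/HCl pH 8.0 buffer. Reaction with 2 mM ATP and 0.75 µM biotinylated peptide for 25 min at 22 °C. Phospho-RB antibody TR-FRET (665/620 nm ratio) read after 1 h; data normalised to no-inhibitor and no-enzyme controls.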

[1] = biological target: T2, CDK12 (nuclear staining in CAL-120 cells) (Homo sapiens, UniProt Q9NYV4); experiment: CDK12 nuclear protein level: immunofluorescence/high content analysis (CAL-120); type: cell-based; conditions: for DC50: CAL-120 cells, 24 h, immunofluorescence, 50% reduction of nuclear CDK12 staining intensity, median, read-out: CDK12 degradation IF, DC50- [mol/l] (median); for (IC50 CDK12 high ATP) to (Degradation DC50 CDK12) ratio: ratio of IC50 CDK12 high ATP kinase assay to DC50 CDK12 degradation (IF, CAL-120)
T2 construct: endogenous in cells; host or cells: CAL-120 human breast cancer cells (DSMZ ACC 459)
How it was run: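 CAL-120 cells were treated with compound for 24 h at 37 °C, fixed with PFA and immunostained for CDK12. Nuclear CDK12 intensity was quantified by automated image analysis and normalized to DMSO and control. DC50 is the concentration giving 50% reduction of nuclear staining.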

T2 sequence (Q9NYV4 whole entry): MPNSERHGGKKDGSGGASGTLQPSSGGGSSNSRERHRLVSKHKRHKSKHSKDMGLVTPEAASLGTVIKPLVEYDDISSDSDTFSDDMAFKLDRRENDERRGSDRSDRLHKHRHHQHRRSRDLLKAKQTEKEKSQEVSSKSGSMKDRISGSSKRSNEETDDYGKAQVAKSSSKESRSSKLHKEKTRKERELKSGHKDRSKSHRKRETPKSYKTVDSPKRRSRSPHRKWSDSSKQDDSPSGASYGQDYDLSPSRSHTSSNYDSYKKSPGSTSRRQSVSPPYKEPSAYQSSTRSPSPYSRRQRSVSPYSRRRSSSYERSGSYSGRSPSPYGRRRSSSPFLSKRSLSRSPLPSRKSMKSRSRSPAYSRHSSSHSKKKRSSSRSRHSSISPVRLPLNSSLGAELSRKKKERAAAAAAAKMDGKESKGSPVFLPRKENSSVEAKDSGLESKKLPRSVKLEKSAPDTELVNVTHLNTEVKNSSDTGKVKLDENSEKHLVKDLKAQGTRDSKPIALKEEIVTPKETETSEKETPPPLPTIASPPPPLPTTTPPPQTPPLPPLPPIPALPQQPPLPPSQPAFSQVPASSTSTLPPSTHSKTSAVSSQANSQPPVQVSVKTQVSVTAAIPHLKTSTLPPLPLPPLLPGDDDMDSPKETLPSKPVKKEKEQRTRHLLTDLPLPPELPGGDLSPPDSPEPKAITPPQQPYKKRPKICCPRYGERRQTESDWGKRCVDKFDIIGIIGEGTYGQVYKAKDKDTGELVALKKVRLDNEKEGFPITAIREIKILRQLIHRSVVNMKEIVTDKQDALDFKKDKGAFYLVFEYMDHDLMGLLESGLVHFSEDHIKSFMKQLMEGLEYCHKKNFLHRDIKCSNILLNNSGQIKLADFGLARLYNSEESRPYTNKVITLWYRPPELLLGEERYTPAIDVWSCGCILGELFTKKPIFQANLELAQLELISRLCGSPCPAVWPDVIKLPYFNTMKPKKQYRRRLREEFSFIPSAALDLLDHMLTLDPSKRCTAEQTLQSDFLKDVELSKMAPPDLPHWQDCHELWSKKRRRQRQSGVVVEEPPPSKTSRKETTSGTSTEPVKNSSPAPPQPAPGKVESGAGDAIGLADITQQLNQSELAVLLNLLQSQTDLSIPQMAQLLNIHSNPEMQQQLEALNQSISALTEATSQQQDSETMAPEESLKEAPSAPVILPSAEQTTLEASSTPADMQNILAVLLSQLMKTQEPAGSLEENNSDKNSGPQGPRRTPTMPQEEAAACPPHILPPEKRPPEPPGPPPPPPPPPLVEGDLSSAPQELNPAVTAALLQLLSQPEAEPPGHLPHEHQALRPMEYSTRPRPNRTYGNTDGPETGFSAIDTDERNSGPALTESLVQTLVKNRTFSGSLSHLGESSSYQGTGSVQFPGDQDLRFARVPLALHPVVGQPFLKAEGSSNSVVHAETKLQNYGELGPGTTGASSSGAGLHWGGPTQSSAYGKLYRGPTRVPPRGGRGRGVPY
T2 sequence (O75909 whole entry partner): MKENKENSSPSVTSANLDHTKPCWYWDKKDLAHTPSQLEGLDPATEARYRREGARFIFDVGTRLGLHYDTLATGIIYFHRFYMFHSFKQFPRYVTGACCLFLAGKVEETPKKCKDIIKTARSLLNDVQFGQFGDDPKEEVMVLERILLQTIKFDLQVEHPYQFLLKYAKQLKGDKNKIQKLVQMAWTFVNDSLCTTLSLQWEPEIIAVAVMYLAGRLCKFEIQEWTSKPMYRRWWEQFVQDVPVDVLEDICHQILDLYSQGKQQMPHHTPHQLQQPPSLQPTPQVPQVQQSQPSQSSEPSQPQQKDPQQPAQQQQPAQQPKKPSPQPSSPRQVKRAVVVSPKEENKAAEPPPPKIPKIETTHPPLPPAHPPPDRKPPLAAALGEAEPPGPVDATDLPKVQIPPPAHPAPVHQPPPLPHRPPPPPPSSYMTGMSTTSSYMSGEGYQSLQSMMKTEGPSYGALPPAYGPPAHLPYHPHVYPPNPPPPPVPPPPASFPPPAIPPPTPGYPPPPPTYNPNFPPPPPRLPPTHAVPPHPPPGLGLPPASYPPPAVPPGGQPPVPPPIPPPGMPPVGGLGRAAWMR

Row | Compound | IC50 (CDK2/CycE) [nM] | DC50 [1] [nM] | (IC50 CDK12 high ATP) to (Degradation DC50 CDK12) ratio [1]
1 | Brc1cnn2c(NCc3nc4ccncc4[nH]3)nc(N3CCOCC3)nc12 [Example 22, 8-bromo-N-[(3H-imidazo[4,5-c]pyridin-2-yl)methyl]-2-(morpholin-4-yl)pyrazolo[1,5-a][1,3,5]triazin-4-amine] | 15500 | 99 | 40
2 | CN1CCN(c2nc(NCc3nc4ccccc4[nH]3)n3ncc(C(F)(F)F)c3n2)CC1 [Example 297, N-[(1H-benzimidazol-2-yl)methyl]-2-(4-methylpiperazin-1-yl)-8-(trifluoromethyl)pyrazolo[1,5-a][1,3,5]triazin-4-amine] | 13300 | 7.59 | 2294
3 | Brc1cnn2c(NCc3nc4ccccc4[nH]3)nc(NCC3CC3)nc12 [Example 284, N^4-[(1H-benzimidazol-2-yl)methyl]-8-bromo-N^2-(cyclopropylmethyl)pyrazolo[1,5-a][1,3,5]triazine-2,4-diamine] | 1990 | 48.5 | 113
4 | Brc1cnn2c(NCc3nc4ccccc4[nH]3)nc(N3C[C@H]4CC[C@@H]3CN4)nc12 (single isomer, unassigned) [Example 316, N-[(1H-benzimidazol-2-yl)methyl]-8-bromo-2-{[1R or S-(1R*4R*)]-2,5-diazabicyclo[2.2.2]octan-2-yl}pyrazolo[1,5-a][1,3,5]triazin-4-amine] | 284 | 5.62 | 519
5 | Brc1cnn2c(NCc3nc4c([nH]3)CCCC4)nc(N3CCOCC3)nc12 [Example 21, 8-bromo-2-(morpholin-4-yl)-N-[(4,5,6,7-tetrahydro-1H-benzimidazol-2-yl)methyl]pyrazolo[1,5-a][1,3,5]triazin-4-amine] | 2070 | 186 | 52
6 | Fc1ccc2[nH]c(CNc3nc(N4C[C@H]5CC[C@@H](C4)N5)nc4c(C5CC5)cnn34)nc2c1F [Example 294, 8-cyclopropyl-2-[(1R,5S)-3,8-diazabicyclo[3.2.1]octan-3-yl]-N-[(4,5-difluoro-1H-benzimidazol-2-yl)methyl]pyrazolo[1,5-a][1,3,5]triazin-4-amine] | 17200 | 2.73 | 684
7 | Fc1ccc2[nH]c(CNc3nc(N4CCOCC4)nc4c(C5CCOCC5)cnn34)nc2c1F [Example 276, N-[(4,5-difluoro-1H-benzimidazol-2-yl)methyl]-2-(morpholin-4-yl)-8-(oxan-4-yl)pyrazolo[1,5-a][1,3,5]triazin-4-amine] | > 20000 | 38.8 | >516
8 | FC(F)(F)Cc1cnn2c(NCc3nc4ccccc4[nH]3)nc(N3CCOCC3)nc12.O=CO [Example 265, formic acid-N-[(1H-benzimidazol-2-yl)methyl]-2-(morpholin-4-yl)-8-(2,2,2-trifluoroethyl)pyrazolo[1,5-a][1,3,5]triazin-4-amine (1/1)] | > 20000 | 7.23 | >2310
9 | Cc1ccnc2[nH]c(CNc3nc(N4CCOCC4)nc4c(Br)cnn34)nc12 [Example 20, 8-bromo-N-[(7-methyl-3H-imidazo[4,5-b]pyridin-2-yl)methyl]-2-(morpholin-4-yl)pyrazolo[1,5-a][1,3,5]triazin-4-amine] | 1720 | 2.57 | 681
10 | Cc1cc2nc(CNc3nc(N4CCN(C)CC4)nc4c(C5CC5)cnn34)[nH]c2cc1C [Example 312, 8-cyclopropyl-N-[(5,6-dimethyl-1H-benzimidazol-2-yl)methyl]-2-(4-methylpiperazin-1-yl)pyrazolo[1,5-a][1,3,5]triazin-4-amine] | > 12500 | 3.9 | 2616
11 | c1ccc2[nH]c(CNc3nc(N4CCOCC4)nc4c(C5CCCC5)cnn34)nc2c1 [Example 244, N-[(1H-benzimidazol-2-yl)methyl]-8-cyclopentyl-2-(morpholin-4-yl)pyrazolo[1,5-a][1,3,5]triazin-4-amine] | > 20000 | 101 | –
12 | CN1CCN(c2nc(NCc3nc4cc(F)c(Cl)cc4[nH]3)n3ncc(C4CC4)c3n2)CC1 [Example 309, N-[(6-chloro-5-fluoro-1H-benzimidazol-2-yl)methyl]-8-cyclopropyl-2-(4-methylpiperazin-1-yl)pyrazolo[1,5-a][1,3,5]triazin-4-amine] | > 20000 | 8.53 | >2346
13 | C[C@@H]1CN(c2nc(NCc3nc4ccccc4[nH]3)n3ncc(C4CC4)c3n2)C[C@H](C)N1 [Example 248, N-[(1H-benzimidazol-2-yl)methyl]-8-cyclopropyl-2-[(3R,5S)-3,5-dimethylpiperazin-1-yl]pyrazolo[1,5-a][1,3,5]triazin-4-amine] | > 20000 | 0.946 | 9730
14 | Clc1cc2nc(CNc3nc(N4CCOCC4)nc4c(C5CC5)cnn34)[nH]c2cc1Cl [Example 301, 8-cyclopropyl-N-[(5,6-dichloro-1H-benzimidazol-2-yl)methyl]-2-(morpholin-4-yl)pyrazolo[1,5-a][1,3,5]triazin-4-amine] | > 20000 | 4.37 | 270
15 | CC(C)CNc1nc(NCc2nc3ccccc3[nH]2)n2ncc(Br)c2n1 [Example 285, N^4-[(1H-benzimidazol-2-yl)methyl]-8-bromo-N^2-(2-methylpropyl)pyrazolo[1,5-a][1,3,5]triazine-2,4-diamine] | 2550 | 32.3 | 200

Results, then the molecule that gave them:

Row | IC50 (CDK2/CycE) [nM] | DC50 [1] [nM] | (IC50 CDK12 high ATP) to (Degradation DC50 CDK12) ratio [1] | Compound
16 | 12800 | 3.16 | 3560 | N[C@@H]1CCN(c2nc(NCc3nc4ccccc4[nH]3)n3ncc(Br)c3n2)C1 [Example 250, 2-[(3R)-3-aminopyrrolidin-1-yl]-N-[(1H-benzimidazol-2-yl)methyl]-8-bromopyrazolo[1,5-a][1,3,5]triazin-4-amine]
17 | 16200 | 7.24 | >2761 | CNC1CCN(c2nc(NCc3nc4ccccc4[nH]3)n3ncc(Br)c3n2)CC1 [Example 272, N-[(1H-benzimidazol-2-yl)methyl]-8-bromo-2-[4-(methylamino)piperidin-1-yl]pyrazolo[1,5-a][1,3,5]triazin-4-amine]
18 | 17400 | 21.4 | 678 | CN1CCN(c2nc(NCc3nc4ccccc4[nH]3)n3ncc(Br)c3n2)C(CO)C1 (single isomer, unassigned) [Example 280, [(2R or S)-1-(4-{[(1H-benzimidazol-2-yl)methyl]amino}-8-bromopyrazolo[1,5-a][1,3,5]triazin-2-yl)-4-methylpiperazin-2-yl]methanol]
19 | 13300 | 1.17 | >17030 | CN[C@H]1CCN(c2nc(NCc3nc4ccccc4[nH]3)n3ncc(Br)c3n2)C1 [Example 252, N-[(1H-benzimidazol-2-yl)methyl]-8-bromo-2-[(3S)-3-(methylamino)pyrrolidin-1-yl]pyrazolo[1,5-a][1,3,5]triazin-4-amine]
20 | 12200 | 0.875 | >22856 | CN[C@@H]1CCN(c2nc(NCc3nc4ccccc4[nH]3)n3ncc(Br)c3n2)C1 [Example 253, N-[(1H-benzimidazol-2-yl)methyl]-8-bromo-2-[(3R)-3-(methylamino)pyrrolidin-1-yl]pyrazolo[1,5-a][1,3,5]triazin-4-amine]
21 | 4070 | 19.2 | 554 | Brc1cnn2c(NCc3nc4ccccc4[nH]3)nc(N3CCC4(CCN4)CC3)nc12 [Example 291, N-[(1H-benzimidazol-2-yl)methyl]-8-bromo-2-(1,7-diazaspiro[3.5]nonan-7-yl)pyrazolo[1,5-a][1,3,5]triazin-4-amine]
22 | 10000 | 18.3 | >1094 | Brc1cnn2c(NCc3nc4ccccc4[nH]3)nc(N3CC4CCNC4C3)nc12 (centres unmarked) [Example 271, 2-(2,3,3a,4,6,6a-hexahydro-1H-pyrrolo[2,3-c]pyrrol-5-yl)-N-(1H-benzimidazol-2-ylmethyl)-8-bromo-pyrazolo[1,5-a][1,3,5]triazin-4-amine]
23 | 9480 | 101 | 106 | CN(CC1CC1)c1nc(NCc2nc3ccccc3[nH]2)n2ncc(Br)c2n1 [Example 287, N^4-[(1H-benzimidazol-2-yl)methyl]-8-bromo-N^2-(cyclopropylmethyl)-N^2-methylpyrazolo[1,5-a][1,3,5]triazine-2,4-diamine]
24 | 7290 | 19.9 | >942 | CC1CN(C)CCN1c1nc(NCc2nc3ccccc3[nH]2)n2ncc(Br)c2n1 (single isomer, unassigned; enantiomer 2) [Example 261, N-(1H-benzimidazol-2-ylmethyl)-8-bromo-2-[(2R or S)-2,4-dimethylpiperazin-1-yl]pyrazolo[1,5-a][1,3,5]triazin-4-amine (Enantiomer 2)]

— patent publication US20230117034A1, “PYRAZOLOTRIAZINES” (Bayer Aktiengesellschaft, priority 2019, published 2023)
